Paper PMC6437697 (Journal of Medicinal Chemistry, 2019)

What was measured:
Test in all cases: KINOMEscan
Assay type in all cases: binding
Conditions in all cases: read-out: % control activity remaining
[1] = target: T1, ABL1(H396P)-nonphosphorylated (Homo sapiens, UniProt P00519, H396P)
T1 construct: purchased Eurofins DiscoverX KINOMEscan

CDK11 = target: T2, CDK11 (Homo sapiens, UniProt Q9BWU1)
T2 construct: purchased Eurofins DiscoverX KINOMEscan

EGFR(S752-I759del) = target: T3, EGFR(S752-I759del) (Homo sapiens, UniProt P00533, DEL752-759)
T3 construct: purchased Eurofins DiscoverX KINOMEscan
T3 sequence (P00533 with tags, fused parts or gaps DEL752-759 limits assumed): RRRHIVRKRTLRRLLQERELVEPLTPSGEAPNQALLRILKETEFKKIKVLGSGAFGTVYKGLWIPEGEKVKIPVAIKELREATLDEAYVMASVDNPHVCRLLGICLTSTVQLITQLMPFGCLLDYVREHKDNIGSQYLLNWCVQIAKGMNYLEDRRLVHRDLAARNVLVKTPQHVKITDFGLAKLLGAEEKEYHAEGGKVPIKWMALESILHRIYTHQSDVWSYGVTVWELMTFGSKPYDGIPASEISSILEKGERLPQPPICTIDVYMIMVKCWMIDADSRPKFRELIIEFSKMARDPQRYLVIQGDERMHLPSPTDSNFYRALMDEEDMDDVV

MAPKAPK5 = target: T4, MAPKAPK5 (Homo sapiens, UniProt Q8IW41)
T4 construct: purchased Eurofins DiscoverX KINOMEscan
T4 sequence (Q8IW41 1-473): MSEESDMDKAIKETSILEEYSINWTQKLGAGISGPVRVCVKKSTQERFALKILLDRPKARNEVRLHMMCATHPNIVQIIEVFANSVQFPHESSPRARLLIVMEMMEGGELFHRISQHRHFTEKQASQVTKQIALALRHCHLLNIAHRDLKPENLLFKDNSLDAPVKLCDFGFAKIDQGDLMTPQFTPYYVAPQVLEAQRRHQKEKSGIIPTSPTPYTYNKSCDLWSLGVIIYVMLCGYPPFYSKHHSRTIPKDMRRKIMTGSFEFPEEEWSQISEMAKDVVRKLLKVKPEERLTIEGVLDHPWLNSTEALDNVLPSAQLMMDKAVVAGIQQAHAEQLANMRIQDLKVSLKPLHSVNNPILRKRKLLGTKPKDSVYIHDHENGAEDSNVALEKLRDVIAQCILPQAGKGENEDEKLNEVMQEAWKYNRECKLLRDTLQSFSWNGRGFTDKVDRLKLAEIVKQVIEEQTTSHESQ

MEK4 = target: T5, MEK4 (Homo sapiens, UniProt P45985)
T5 construct: purchased Eurofins DiscoverX KINOMEscan
T5 sequence (P45985 1-399): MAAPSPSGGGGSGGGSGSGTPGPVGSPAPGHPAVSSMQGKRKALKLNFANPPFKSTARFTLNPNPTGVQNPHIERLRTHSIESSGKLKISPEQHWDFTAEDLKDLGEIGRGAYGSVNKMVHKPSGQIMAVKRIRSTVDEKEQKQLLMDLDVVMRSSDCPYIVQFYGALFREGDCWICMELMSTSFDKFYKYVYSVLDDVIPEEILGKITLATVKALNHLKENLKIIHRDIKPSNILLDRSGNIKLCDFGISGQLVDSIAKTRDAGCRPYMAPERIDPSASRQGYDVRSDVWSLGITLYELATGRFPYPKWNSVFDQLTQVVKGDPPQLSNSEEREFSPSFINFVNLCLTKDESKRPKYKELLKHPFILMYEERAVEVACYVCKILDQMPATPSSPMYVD

MST3 = target: T6, MST3 (Homo sapiens, UniProt Q9Y6E0)
T6 construct: purchased Eurofins DiscoverX KINOMEscan
T6 sequence (Q9Y6E0 whole entry): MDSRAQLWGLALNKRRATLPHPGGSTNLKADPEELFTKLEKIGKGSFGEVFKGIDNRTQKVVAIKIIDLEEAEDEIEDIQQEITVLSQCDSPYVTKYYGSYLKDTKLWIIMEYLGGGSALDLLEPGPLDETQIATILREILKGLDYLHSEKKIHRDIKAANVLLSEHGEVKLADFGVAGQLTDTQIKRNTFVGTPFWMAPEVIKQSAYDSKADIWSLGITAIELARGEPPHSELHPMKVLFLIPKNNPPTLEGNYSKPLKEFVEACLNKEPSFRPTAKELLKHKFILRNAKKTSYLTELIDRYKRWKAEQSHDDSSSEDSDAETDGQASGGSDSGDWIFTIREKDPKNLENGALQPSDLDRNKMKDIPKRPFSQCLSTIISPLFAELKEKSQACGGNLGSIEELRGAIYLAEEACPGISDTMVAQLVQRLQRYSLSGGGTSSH

MST4 = target: T7, MST4 (Homo sapiens, UniProt Q9P289)
T7 construct: purchased Eurofins DiscoverX KINOMEscan
T7 sequence (Q9P289 whole entry): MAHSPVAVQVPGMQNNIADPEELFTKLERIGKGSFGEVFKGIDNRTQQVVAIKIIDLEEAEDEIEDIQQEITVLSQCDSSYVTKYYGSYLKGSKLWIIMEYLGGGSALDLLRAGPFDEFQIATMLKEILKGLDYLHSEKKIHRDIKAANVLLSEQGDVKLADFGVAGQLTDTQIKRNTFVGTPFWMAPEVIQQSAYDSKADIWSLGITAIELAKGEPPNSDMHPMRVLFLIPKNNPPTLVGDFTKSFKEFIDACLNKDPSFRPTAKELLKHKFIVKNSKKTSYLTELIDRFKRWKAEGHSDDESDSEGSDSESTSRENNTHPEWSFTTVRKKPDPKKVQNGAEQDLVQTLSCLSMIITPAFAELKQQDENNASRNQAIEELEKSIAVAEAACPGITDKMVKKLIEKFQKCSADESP

NEK2 = target: T8, NEK2 (Homo sapiens, UniProt P51955)
T8 construct: purchased Eurofins DiscoverX KINOMEscan
T8 sequence (P51955 1-445): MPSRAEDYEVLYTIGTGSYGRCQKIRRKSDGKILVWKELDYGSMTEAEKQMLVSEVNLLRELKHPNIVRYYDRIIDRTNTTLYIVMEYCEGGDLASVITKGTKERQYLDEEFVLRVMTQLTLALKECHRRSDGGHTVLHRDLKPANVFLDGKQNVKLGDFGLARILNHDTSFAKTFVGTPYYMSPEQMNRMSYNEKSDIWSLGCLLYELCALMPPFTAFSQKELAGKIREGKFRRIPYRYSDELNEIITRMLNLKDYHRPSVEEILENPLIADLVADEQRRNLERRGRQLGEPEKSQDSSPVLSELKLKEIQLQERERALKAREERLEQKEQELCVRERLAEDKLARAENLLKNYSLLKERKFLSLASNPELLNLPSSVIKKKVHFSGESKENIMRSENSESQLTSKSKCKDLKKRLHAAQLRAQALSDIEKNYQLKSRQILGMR

PIK3CA(Q546K) = target: T9, PIK3CA(Q546K) (Homo sapiens, UniProt P42336, Q546K)
T9 construct: purchased Eurofins DiscoverX KINOMEscan
T9 sequence (P42336 whole entry Q546K): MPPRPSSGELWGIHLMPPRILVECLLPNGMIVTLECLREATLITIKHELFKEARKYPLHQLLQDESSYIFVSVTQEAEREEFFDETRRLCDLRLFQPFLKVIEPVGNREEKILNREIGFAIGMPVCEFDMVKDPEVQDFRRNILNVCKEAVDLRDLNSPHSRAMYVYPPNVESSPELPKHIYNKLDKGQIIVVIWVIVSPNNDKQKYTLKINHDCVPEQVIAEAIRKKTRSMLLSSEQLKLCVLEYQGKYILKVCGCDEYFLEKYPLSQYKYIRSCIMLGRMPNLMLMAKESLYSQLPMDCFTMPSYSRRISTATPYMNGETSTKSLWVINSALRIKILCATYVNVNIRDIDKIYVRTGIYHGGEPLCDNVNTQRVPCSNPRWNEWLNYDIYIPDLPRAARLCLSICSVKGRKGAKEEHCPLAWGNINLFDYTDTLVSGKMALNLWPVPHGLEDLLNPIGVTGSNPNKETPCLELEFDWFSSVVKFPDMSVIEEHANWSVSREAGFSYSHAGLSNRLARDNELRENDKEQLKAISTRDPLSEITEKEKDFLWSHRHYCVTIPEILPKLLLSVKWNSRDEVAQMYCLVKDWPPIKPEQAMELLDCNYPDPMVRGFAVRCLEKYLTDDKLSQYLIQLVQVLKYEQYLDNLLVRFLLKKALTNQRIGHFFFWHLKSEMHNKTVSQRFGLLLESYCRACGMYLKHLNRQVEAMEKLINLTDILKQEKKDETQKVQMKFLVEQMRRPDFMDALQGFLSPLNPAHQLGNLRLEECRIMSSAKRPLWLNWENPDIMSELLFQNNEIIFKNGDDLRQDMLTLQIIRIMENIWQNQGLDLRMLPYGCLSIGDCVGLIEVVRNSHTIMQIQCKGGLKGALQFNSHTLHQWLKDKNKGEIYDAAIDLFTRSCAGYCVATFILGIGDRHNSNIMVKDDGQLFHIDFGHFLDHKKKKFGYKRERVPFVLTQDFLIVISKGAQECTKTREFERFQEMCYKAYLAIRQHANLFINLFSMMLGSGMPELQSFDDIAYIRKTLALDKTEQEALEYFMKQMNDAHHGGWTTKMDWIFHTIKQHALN

RIPK5 = target: T10, RIPK5 (Homo sapiens, UniProt Q6XUX3)
T10 construct: purchased Eurofins DiscoverX KINOMEscan
T10 sequence (Q6XUX3 1-929): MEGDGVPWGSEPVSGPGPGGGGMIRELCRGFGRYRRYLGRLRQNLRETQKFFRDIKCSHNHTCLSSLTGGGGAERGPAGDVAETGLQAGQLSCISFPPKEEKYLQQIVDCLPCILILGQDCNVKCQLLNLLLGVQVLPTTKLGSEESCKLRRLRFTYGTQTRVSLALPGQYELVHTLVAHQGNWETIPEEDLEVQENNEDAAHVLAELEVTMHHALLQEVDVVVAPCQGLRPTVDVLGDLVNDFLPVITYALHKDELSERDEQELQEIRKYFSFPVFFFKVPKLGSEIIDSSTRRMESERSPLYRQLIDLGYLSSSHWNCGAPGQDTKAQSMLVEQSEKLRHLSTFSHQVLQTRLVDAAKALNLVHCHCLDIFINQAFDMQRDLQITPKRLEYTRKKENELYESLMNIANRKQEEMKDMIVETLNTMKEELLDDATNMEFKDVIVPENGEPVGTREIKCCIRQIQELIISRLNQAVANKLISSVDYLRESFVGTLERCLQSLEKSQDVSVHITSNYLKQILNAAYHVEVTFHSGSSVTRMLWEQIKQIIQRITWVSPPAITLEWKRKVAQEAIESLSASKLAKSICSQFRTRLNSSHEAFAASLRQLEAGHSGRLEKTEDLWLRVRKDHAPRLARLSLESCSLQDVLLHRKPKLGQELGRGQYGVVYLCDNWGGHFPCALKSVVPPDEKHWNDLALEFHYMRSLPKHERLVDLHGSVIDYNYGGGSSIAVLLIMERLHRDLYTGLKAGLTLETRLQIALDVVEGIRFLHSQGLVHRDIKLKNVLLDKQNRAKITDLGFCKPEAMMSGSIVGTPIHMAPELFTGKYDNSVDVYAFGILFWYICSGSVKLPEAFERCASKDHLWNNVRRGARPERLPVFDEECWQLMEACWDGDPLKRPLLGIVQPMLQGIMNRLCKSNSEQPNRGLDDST

WEE1 = target: T11, WEE1 (Homo sapiens, UniProt P30291)
T11 construct: purchased Eurofins DiscoverX KINOMEscan
T11 sequence (P30291 whole entry): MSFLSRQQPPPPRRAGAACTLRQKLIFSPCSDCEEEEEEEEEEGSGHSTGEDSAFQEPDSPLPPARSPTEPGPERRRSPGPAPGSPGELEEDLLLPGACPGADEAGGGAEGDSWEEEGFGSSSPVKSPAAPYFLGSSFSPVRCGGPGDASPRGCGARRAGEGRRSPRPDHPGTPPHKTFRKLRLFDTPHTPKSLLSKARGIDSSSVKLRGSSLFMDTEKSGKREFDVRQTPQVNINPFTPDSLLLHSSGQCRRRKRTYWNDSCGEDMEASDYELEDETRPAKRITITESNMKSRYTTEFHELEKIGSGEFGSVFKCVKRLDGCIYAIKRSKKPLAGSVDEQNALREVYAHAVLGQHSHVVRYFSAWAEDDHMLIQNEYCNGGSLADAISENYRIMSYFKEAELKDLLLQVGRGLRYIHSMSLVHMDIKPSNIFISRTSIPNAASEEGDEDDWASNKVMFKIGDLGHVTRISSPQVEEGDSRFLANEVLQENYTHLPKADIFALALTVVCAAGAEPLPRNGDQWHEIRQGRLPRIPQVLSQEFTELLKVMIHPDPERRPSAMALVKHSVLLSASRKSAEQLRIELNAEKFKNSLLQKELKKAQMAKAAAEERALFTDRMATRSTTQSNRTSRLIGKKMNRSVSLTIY

T2 sequence (Q9BWU1 whole entry): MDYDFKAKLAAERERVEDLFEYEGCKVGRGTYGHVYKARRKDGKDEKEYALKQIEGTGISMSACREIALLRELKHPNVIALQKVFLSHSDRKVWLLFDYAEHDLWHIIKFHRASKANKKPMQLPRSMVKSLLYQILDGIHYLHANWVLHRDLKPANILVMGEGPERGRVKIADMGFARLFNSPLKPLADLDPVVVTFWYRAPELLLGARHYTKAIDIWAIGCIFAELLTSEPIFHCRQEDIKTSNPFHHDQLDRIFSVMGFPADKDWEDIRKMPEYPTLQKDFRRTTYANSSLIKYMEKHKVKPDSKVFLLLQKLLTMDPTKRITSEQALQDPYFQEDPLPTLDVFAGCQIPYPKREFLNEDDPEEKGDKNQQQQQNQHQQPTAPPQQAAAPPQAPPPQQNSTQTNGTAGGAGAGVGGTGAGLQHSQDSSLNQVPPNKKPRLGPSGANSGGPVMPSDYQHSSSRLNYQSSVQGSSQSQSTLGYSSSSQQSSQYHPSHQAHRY

Structure (SMILES)	remaining binding at 1 µM [1] [%]	remaining binding at 1 µM (CDK11) [%]	remaining binding at 1 µM (EGFR(S752-I759del)) [%]	remaining binding at 1 µM (MAPKAPK5) [%]	remaining binding at 1 µM (MEK4) [%]	remaining binding at 1 µM (MST3) [%]	remaining binding at 1 µM (MST4) [%]	remaining binding at 1 µM (NEK2) [%]	remaining binding at 1 µM (PIK3CA(Q546K)) [%]	remaining binding at 1 µM (RIPK5) [%]	remaining binding at 1 µM (WEE1) [%]
Clc1cc(NCC2CC2)c2ncc(-c3ccc4[nH]ncc4c3)n2n1 [compound 2, 6-Chloro-N-(cyclopropylmethyl)-3-(1H-indazol-5-yl)imidazo[1,2-b]pyridazin-8-amine]	74	97	94	91	75	100	88	100	88	98	100
O=C(CN1CCOCC1)N[C@H]1CC[C@H](Nc2cc(Cl)nn3c(-c4ccc5[nH]ncc5c4)cnc23)CC1 [compound 26]	16	98	95	98	100	91	84	92	100	91	100
CN1CCC(CNc2cc(Cl)nn3c(-c4cc5nc(Nc6ccccc6)[nH]c5cc4F)cnc23)CC1 [compound 31, 6-Chloro-3-(6-fluoro-2-(phenylamino)-1H-benzo[d]imidazol-5-yl)-N-((1-methylpiperidin-4-yl)methyl)imidazo[1,2-b]pyridazin-8-amine]	42	91	97	82	100	92	100	92	81	79	100
